Results taken from patent US9382254B2, “Compounds and pharmaceutical compositions thereof for the treatment of cystic fibrosis” (Galapagos NV, priority 2013, dated 2016).

target: T1, CFTR ΔF508 mutant (Homo sapiens, UniProt P13569, DEL508-508); experiment: YFP-halide influx assay for the CFTR-ΔF508 mutation, gluconate buffer; format: cell-based; settings: CFBE41o- cells, forskolin 10.67 μM
T1 construct: expressed in transfected cells; host or cells: CFBE41o- (adenoviral transduction)
Description: The YFP halide influx assay measures the functionality of the cystic fibrosis Transmembrane Conductance regulator (CFTR) channels in the cystic fibrosis bronchial epithelium cell line CFBE41o-. The assay is used to evaluate the capacity of compounds to increase the open probability of existing CFTR channels in the membrane. It makes use of the observation that the yellow fluorescent protein (YFP) variant YFP H148Q, I152L has its fluorescence substantially quenched by halide ions like Cl^− and I^−. (Galietta, Haggie, & Verkman, 2001) (Nagai, et al., 2002)
For this purpose, CFBE41o-cells are seeded in 96 well plates (6000 CFBE cells/well). One day after seeding, the CFBE cells are transduced with adenoviral vectors that direct the expression of the CFTR ΔF508 mutant and of the YFP reporter. Cells are incubated at 27° C., 5% CO2 for 24 hours so as to allow for the proper folding and migration to the membrane of the CFTR channel or treated with a CFTR modulator during 24 hours at 37° C.
The I^−-induced quenching of fluorescence is recorded immediately after injection of I^− for 7 seconds. The capacity of a compound to increase the channel opening is directly correlated with the decrease in fluorescence, and is expressed as (1-(fluorescence after 7 seconds (F)/fluorescence before injection (F0))) and an EC50 can be derived from a (1-F/F0) vs compound concentration plot.

T1 sequence (P13569 with tags, fused parts or gaps DEL508-508): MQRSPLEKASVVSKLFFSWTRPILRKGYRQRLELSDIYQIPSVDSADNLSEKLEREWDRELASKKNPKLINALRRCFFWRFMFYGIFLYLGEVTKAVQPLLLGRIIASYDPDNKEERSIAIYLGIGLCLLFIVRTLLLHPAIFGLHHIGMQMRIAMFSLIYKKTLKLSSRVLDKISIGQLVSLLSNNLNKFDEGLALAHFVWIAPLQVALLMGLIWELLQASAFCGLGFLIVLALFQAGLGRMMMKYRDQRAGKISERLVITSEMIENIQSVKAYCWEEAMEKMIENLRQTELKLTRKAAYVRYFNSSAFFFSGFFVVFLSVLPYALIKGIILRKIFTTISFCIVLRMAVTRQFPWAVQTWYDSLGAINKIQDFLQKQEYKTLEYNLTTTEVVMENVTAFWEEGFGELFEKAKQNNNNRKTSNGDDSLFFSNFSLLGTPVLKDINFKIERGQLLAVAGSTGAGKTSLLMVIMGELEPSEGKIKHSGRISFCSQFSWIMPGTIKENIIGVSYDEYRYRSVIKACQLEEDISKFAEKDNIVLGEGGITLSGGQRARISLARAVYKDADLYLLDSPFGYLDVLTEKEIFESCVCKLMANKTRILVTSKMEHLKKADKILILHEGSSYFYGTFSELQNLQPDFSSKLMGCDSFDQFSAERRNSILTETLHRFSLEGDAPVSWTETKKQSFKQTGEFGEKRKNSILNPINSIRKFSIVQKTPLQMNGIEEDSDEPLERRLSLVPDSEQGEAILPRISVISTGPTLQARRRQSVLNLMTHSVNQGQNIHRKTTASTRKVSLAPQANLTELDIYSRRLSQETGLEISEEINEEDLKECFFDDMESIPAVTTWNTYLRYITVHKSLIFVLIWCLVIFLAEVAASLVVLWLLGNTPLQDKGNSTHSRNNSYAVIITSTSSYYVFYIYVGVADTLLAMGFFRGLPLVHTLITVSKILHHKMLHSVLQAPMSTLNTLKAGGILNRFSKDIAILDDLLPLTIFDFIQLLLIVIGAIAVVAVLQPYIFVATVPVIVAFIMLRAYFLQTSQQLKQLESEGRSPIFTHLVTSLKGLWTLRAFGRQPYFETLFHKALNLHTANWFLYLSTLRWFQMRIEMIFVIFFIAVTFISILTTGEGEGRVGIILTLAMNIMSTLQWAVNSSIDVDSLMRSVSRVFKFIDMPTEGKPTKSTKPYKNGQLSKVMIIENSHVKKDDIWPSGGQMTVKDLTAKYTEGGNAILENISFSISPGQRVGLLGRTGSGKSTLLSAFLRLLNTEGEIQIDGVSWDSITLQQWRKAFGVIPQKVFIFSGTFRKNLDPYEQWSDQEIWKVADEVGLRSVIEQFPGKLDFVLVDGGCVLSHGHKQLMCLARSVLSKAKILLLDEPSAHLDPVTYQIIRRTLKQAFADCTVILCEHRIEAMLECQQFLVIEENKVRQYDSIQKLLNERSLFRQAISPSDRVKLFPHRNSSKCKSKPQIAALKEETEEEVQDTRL

Q: Which EC50 does the source give for `NC(=O)c1cc(S(=O)(=O)N2CCCC2)sc1NC(=O)c1cc2ccccc2s1` [Compound 55, N-(3-carbamoyl-5-(pyrrolidini-1-ylsulfonyl)thiophen-2-yl)benzo[b] thiophene-2-carboxamide] here?
A: The EC50 was 3330 nM.

Q: How did the EC50 turn out when `NC(=O)c1cc(S(=O)(=O)N2CCCC2)sc1NC(=O)c1cc[nH]n1` [Compound 56, N-(3-carbamoyl-5-(pyrrolidin-1-ylsulfonyl)thiophen-2-yl)-1H-pyrazole-3-carboxamide] was run?
A: The EC50 was 206 nM.

Q: How did the EC50 turn out when `NC(=O)c1cc(S(=O)(=O)N2CCCCC2)sc1NC(=O)C1(c2ccccc2)CC1` [Compound 57, 2-(1-phenylcyclopropanecarboxamido)-5-(piperidin-1-ylsulfonyl) thiophene-3-carboxamide] was run?
A: The EC50 was 2490 nM.

Q: With `N#CC1(C(=O)Nc2sc(S(=O)(=O)N3CCCCC3)cc2C(N)=O)CC1` [Compound 58, 2-(1-cyanocyclopropanecarboxamido)-5-(piperidin-1-ylsulfonyl) thiophene-3-carboxamide] as the compound, how does the EC50 read?
A: Its EC50 is 3330 nM.

Q: With `NC(=O)c1cc(S(=O)(=O)N2CCCCC2)sc1NC(=O)c1cscn1` [Compound 59, N-(3-carbamoyl-5-(piperidin-1-ylsulfonyl)thiophen-2-yl)thiazole-4-carboxamide] as the compound, how does the EC50 read?
A: Its EC50 is 182 nM.

Q: Which EC50 does the source give for `NC(=O)c1cc(S(=O)(=O)N2CCCCC2)sc1NC(=O)c1cnn2ccccc12` [Compound 60, N-(3-carbamoyl-5-(piperidin-1-ylsulfonyl)thiophen-2-yl)pyrazolo[1,5-a]pyridine-3-carboxamide] here?
A: The EC50 was 1900 nM.

Q: How did the EC50 turn out when `NC(=O)c1cc(S(=O)(=O)N2CCCCC2)sc1NC(=O)C1(c2ccc(Cl)cc2)CC1` [Compound 61, 2-(1-(4-chlorophenyl)cyclopropanecarboxamido)-5-(piperidin-1-ylsulfonyl) thiophene-3-carboxamide] was run?
A: Its EC50 is over 1000 nM.

Q: `NC(=O)c1cc(S(=O)(=O)N2CCCCC2)sc1NC(=O)c1cncs1` [Compound 62, N-(3-carbamoyl-5-(piperidin-1-ylsulfonyl)thiophen-2-yl)thiazole-5-carboxamide] was tested. Which EC50 did it give?
A: Its EC50 is 2180 nM.

Q: With `NC(=O)c1cc(S(=O)(=O)N2CCOCC2)sc1NC(=O)c1cc[nH]n1` [Compound 63, N-(3-carbamoyl-5-(morpholinosulfonyl)thiophen-2-yl)-1H-pyrazole-3-carboxamide] as the compound, how does the EC50 read?
A: The EC50 was 251 nM.

Q: Which EC50 does the source give for `NC(=O)c1cc(S(=O)(=O)N2CCCCC2)sc1NC(=O)c1ccc(-c2cccnc2)s1` [Compound 64, N-(3-carbamoyl-5-(piperidin-1-ylsulfonyl)thiophen-2-yl)-5-(pyridin-3-yl)thiphene-2-carboxamide] here?
A: Its EC50 is 2160 nM.

Q: `CC(C)(C)c1ccc(C(=O)Nc2sc(S(=O)(=O)N3CCC(F)(F)CC3)cc2C(N)=O)cc1` [Compound 65, 2-(4-tert-butylbenzamido)-5-(4,4-difluoropiperidin-1-ylsulfonyl)thiophene-3-carboxamide] was tested. Which EC50 did it give?
A: The EC50 was 1570 nM.

Q: `NC(=O)c1cc(S(=O)(=O)N2CCC(F)(F)CC2)sc1NC(=O)c1ccccc1F` [Compound 66, 5-(4,4-difluoropiperidin-1-ylsulfonyl)-2-(2-fluorobenzamido)thiophene-3-carboxamide] was tested. Which EC50 did it give?
A: Its EC50 is 153 nM.

Q: `CC(C)(C)C(=O)Nc1sc(S(=O)(=O)N2CCC(F)(F)CC2)cc1C(N)=O` [Compound 67, 5-(4,4-difluoropiperidin-1-ylsulfonyl)-2-pivalamidothiophene-3-carboxamide] was tested. Which EC50 did it give?
A: The EC50 was 250 nM.

Q: With `CC(C)(C)c1cc(C(=O)Nc2sc(S(=O)(=O)N3CCOCC3)cc2C(N)=O)n[nH]1` [Compound 68, 5-tert-butyl-N-(3-carbamoyl-5-(morpholinosulfonyl)thiophen-2-yl)-1H-pyrazole-3-carboxamide] as the compound, how does the EC50 read?
A: Its EC50 is 129 nM.

Q: Which EC50 does the source give for `CCc1cc(C(=O)Nc2sc(S(=O)(=O)N3CCOCC3)cc2C(N)=O)n[nH]1` [Compound 69, N-(3-carbamoyl-5-(morpholinosulfonyl)thiophen-2-yl)-5-ethyl-1H-pyrazole-3-carboxamide] here?
A: The EC50 was 147 nM.

Q: With `COc1cc(Nc2ccccc2)ccc1C(=O)Nc1sc(S(=O)(=O)N2CCOCC2)cc1C(N)=O` [Compound 70, 2-(2-methoxy-4-(phenylamino)benzamido)-5-(morpholinosulfonyl) thiophene-3-carboxamide] as the compound, how does the EC50 read?
A: The EC50 was 921 nM.

Q: How did the EC50 turn out when `CN(Cc1ccccc1)S(=O)(=O)c1cc(C(N)=O)c(NC(=O)C2(c3ccc4c(c3)OC(F)(F)O4)CC2)s1` [Compound 71, 5-(N-benzyl-N-methylsulfamoyl)-2-(1-(2,2-difluorobenzo[d][1,3]dioxol-5-yl)cyclopropanecarboxamido) thiophene-3-carboxamide] was run?
A: Its EC50 is 797 nM.

Q: With `CN(Cc1ccccc1)S(=O)(=O)c1cc(C(N)=O)c(NC(=O)c2ccccc2F)s1` [Compound 72, 5-(N-benzyl-N-methylsulfamoyl)-2-(2-fluorobenzamido) thiophene-3-carboxamide] as the compound, how does the EC50 read?
A: Its EC50 is 326 nM.

Q: Which EC50 does the source give for `CN(C)S(=O)(=O)c1cc(C(N)=O)c(NC(=O)c2ccccc2F)s1` [Compound 74, 5-(N,N-dimethylsulfamoyl)-2-(2-fluorobenzamido) thiophene-3-carboxamide] here?
A: Its EC50 is 135 nM.

Q: Which EC50 does the source give for `CN(C)S(=O)(=O)c1cc(C(N)=O)c(NC(=O)c2cc[nH]n2)s1` [Compound 75, N-(3-carbamoyl-5-(N,N-dimethylsulfamoyl)thiophen-2-yl)-1H-pyrazole-3-carboxamide] here?
A: The EC50 was 418 nM.

Q: `NC(=O)c1cc(S(=O)(=O)N2CCOCC2)sc1NC(=O)c1cscn1` [Compound 76, N-(3-carbamoyl-5-(morpholinosulfonyl)thiophen-2-yl)thiazole-4-carboxamide] was tested. Which EC50 did it give?
A: The EC50 was 621 nM.

Q: `NC(=O)c1cc(S(=O)(=O)N2CCOCC2)sc1NC(=O)c1ncccc1F` [Compound 77, N-(3-carbamoyl-5-(morpholinosulfonyl)thiophen-2-yl)-3-fluoropicolinamide] was tested. Which EC50 did it give?
A: The EC50 was 3330 nM.

Q: For `NC(=O)c1cc(S(=O)(=O)N2CCOCC2)sc1NC(=O)c1cccnn1` [Compound 79, N-(3-carbamoyl-5-(morpholinosulfonyl)thiophen-2-yl) pyridazine-3-carboxamide], which EC50 is on record?
A: The EC50 was over 1000 nM.

Q: Which EC50 does the source give for `NC(=O)c1cc(S(=O)(=O)N2CCOCC2)sc1NC(=O)c1ccnnc1` [Compound 80, N-(3-carbamoyl-5-(morpholinosulfonyl)thiophen-2-yl)pyridazine-4-carboxamide] here?
A: The EC50 was over 1000 nM.

Q: How did the EC50 turn out when `NC(=O)c1cc(S(=O)(=O)N2CCOCC2)sc1NC(=O)c1ncccn1` [Compound 81, N-(3-carbamoyl-5-(morpholinosulfonyl)thiophen-2-yl) pyrimidine-2-carboxamide] was run?
A: Its EC50 is over 1000 nM.

Q: How did the EC50 turn out when `Cc1ccc(C(=O)Nc2sc(S(=O)(=O)Cc3ccccc3)cc2C(N)=O)s1` [Compound 82, N-(5-(benzylsulfonyl)-3-carbamoylthiophen-2-yl)-5-methylthiophene-2-carboxamide] was run?
A: Its EC50 is 468 nM.

Q: With `Cc1ccc(C(=O)Nc2sc(S(=O)(=O)C3CCOCC3)cc2C(N)=O)s1` [Compound 84, N-(3-carbamoyl-5-(tetrahydro-2H-pyran-4-ylsulfonyl)thiophen-2-yl)-5-methylthiophene-2-carboxamide] as the compound, how does the EC50 read?
A: The EC50 was 3190 nM.

Q: With `Cc1c(S(=O)(=O)N2CCOCC2)sc(NC(=O)c2ccccc2F)c1C(N)=O` [Compound 85, 2-(2-fluorobenzamido)-4-methyl-5-(morpholinosulfonyl) thiophene-3-carboxamide] as the compound, how does the EC50 read?
A: Its EC50 is 114 nM.

Q: For `Cc1ccc(C(=O)Nc2sc(S(=O)(=O)c3ccccc3)c(C)c2C(N)=O)s1` [Compound 86, N-(3-carbamoyl-4-methyl-5-(phenylsulfonyl)thiophen-2-yl)-5-methylthiophene-2-carboxamide], which EC50 is on record?
A: Its EC50 is 138 nM.

Q: How did the EC50 turn out when `CN(Cc1ccccc1)S(=O)(=O)c1cc(C(N)=O)c(NC(=O)C(C)(C)C)s1` [Compound 88, 5-(N-benzyl-N-methylsulfamoyl)-2-pivalamidothiophene-3-carboxamide] was run?
A: Its EC50 is 162 nM.

Q: With `Cc1ccc(C(=O)Nc2sc(S(=O)(=O)c3ccccn3)cc2C(N)=O)s1` [Compound 89, N-(3-carbamoyl-5-(pyridin-2-ylsulfonyl)thiophen-2-yl)-5-methylthiophene-2-carboxamide] as the compound, how does the EC50 read?
A: Its EC50 is 378 nM.

Q: With `Cc1c(S(=O)(=O)N2CCOCC2)sc(NC(=O)c2cc[nH]n2)c1C(N)=O` [Compound 90, N-(3-carbamoyl-4-methyl-5-(morpholinosulfonyl)thiophen-2-yl)-1H-pyrazole-3-carboxamide] as the compound, how does the EC50 read?
A: The EC50 was 261 nM.

Q: For `NC(=O)c1cc(S(=O)(=O)N2CCOCC2)sc1NC(=O)c1ccccn1` [Compound 91, N-(3-carbamoyl-5-(morpholinosulfonyl)thiophen-2-yl) picolinamide], which EC50 is on record?
A: The EC50 was 1520 nM.

Q: `Cc1c(S(=O)(=O)N2CCOCC2)sc(NC(=O)C(C)(C)C)c1C(N)=O` [Compound 92, 4-methyl-5-(morpholinosulfonyl)-2-pivalamidothiophene-3-carboxamide] was tested. Which EC50 did it give?
A: Its EC50 is 953 nM.

Q: With `NC(=O)c1cc(S(=O)(=O)N2CCOCC2)sc1NC(=O)c1nccs1` [Compound 93, N-(3-carbamoyl-5-(morpholinosulfonyl)thiophen-2-yl)thiazole-2-carboxamide] as the compound, how does the EC50 read?
A: The EC50 was 3330 nM.

Q: With `NC(=O)c1cc(S(=O)(=O)N2CCOCC2)sc1NC(=O)c1cocn1` [Compound 94, N-(3-carbamoyl-5-(morpholinosulfonyl)thiophen-2-yl) oxazole-4-carboxamide] as the compound, how does the EC50 read?
A: The EC50 was 3330 nM.

Q: How did the EC50 turn out when `CC(C)(C)c1cc(C(=O)Nc2sc(S(=O)(=O)c3ccccc3)cc2C(N)=O)n[nH]1` [Compound 96, 5-tert-butyl-N-(3-carbamoyl-5-(phenylsulfonyl)thiophen-2-yl)-1H-pyrazole-3-carboxamide] was run?
A: Its EC50 is 253 nM.
